Assay results from BindingDB's records for doi:10.1016/j.bmcl.2012.07.091 (University of Copenhagen, 2012).

biological target: T1, Lysine-specific demethylase 4C (Homo sapiens, UniProt Q9H3R0); experiment: Inhibition of KDM4C catalytic core-mediated demethylation of ARK(Me)3STGGK after 30 mins by FDH-coupled assay
T1 sequence (Q9H3R0 whole entry): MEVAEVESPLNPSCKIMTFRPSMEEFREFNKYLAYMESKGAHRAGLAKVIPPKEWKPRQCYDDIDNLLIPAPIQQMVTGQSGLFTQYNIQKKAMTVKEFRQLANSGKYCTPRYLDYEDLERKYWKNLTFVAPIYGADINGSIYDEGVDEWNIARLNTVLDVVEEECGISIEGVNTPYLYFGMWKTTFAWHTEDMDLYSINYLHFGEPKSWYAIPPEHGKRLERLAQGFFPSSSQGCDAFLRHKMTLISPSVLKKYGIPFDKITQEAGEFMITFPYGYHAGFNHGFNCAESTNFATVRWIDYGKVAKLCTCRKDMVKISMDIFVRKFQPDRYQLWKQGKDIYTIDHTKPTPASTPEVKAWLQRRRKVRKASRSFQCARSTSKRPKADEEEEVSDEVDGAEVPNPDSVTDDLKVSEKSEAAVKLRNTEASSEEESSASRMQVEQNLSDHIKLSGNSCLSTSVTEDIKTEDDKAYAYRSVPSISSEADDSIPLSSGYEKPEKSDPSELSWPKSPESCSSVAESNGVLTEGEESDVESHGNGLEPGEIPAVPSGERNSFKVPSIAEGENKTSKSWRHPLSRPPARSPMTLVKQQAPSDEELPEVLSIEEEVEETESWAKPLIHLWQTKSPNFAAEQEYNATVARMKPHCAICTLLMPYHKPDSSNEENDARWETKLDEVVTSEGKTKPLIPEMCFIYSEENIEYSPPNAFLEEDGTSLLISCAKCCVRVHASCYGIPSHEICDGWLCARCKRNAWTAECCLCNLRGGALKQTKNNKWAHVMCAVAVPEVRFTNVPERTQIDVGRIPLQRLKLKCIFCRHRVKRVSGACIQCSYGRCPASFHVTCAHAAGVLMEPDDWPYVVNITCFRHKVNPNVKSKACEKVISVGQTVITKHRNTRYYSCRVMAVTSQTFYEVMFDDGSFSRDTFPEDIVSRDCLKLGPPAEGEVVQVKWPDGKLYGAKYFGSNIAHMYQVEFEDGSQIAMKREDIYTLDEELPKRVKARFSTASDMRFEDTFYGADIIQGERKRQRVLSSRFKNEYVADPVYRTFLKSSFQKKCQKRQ

IC50 | Ki | SMILES
> 200 µM | > 200 µM | CNC(=O)c1n[nH]n(C)c1=O
> 200 µM | > 200 µM | OCC1C(Cl)N=NN1c1ccccc1 (stereo unspecified)
> 200 µM | > 200 µM | CN1CN(Cc2ccccc2)CC1=S
